Data taken from patent publication US9988603B2, “Large scale generation of functional megakaryocytes and platelets from human embryonic stem cells under stromal-free conditions” (Stem Cell & Regenerative Medicine International, priority 2009, dated 2018).

Legend:
Format in all cases: cell-based, human
[1] = tested on: platelet integrin receptor; assay: Platelet spreading on immobilized fibrinogen and vWF; settings: control plasma platelets and ES-PLTs on fibrinogen, stimulated with agonist
Experimental: Chamber slides with microtiter wells (Nalgen Nunc, Rochester, N.Y.) were coated with […] fibrinogen (Sigma) in 0.1M NaHCO3 (pH 8.3) at 4° C. overnight. Washed human peripheral platelets or hESC-platelets (1×10^7/mL) were allowed to adhere and spread on fibrinogen-coated wells at 37° C. for 90 minutes. In some samples, platelets were preincubated with an integrin antagonist, RGDS peptide, for 5 minutes before loading. In other samples, platelets were mixed with ADP (10 μM) or thrombin (1 U/ml) (Sigma-Aldrich, St Louis, Mo.), and immediately loaded on to fibrinogen-coated wells. […] Adherent platelets were viewed with an Olympus BX51 fluorescence microscope (MVI, Avon, Mass.) using a PlanApo lens at 100×/1.40 oil objective. […]
Integrin outside-in signaling functional property in ES-PLTs was further assessed by spreading assay on immobilized fibrinogen on glass slides. […]
Chamber slides with microtiter wells (Nalgen Nunc, Rochester, N.Y.) were coated with 100 μg/mL fibrinogen or vWF ([…]) (Sigma-Aldrich, St Louis, Mo.) in 0.1M NaHCO3 (pH 8.3) at 4° C. overnight. […] Adherent platelets were viewed with an Olympus BX51 fluorescence microscope using a PlanApo lens at 100×/1.40 oil objective. […]

[2] = tested on: hESC derived blast cells (BCs); assay: Blast culture, percentage of CD41a+ cells by FACS; settings: for percentage of CD41a+ cells at the end of blast culture: TPO 100 ng/ml and SCF 50 ng/ml together, second phase of EB formation and blast colony growth
Experimental: The procedure for EB formation and BC generation were performed as previously reported^17:19. In brief, hESCs at 70% confluency were dissociated by 0.05% trypsin and plated in Ultra-Low dishes (Corning, N.Y.) with Stemline II (Sigma) medium supplemented with BMP-4, VEGF (50 ng/ml). Half of the medium was replaced after 48 hours with fresh medium containing the same cytokines plus bFGF 20 ng/ml, SCF, Flt3 ligand (FL) and Tpo (50 ng/ml each, R&D System). On day 4, EBs were collected and dissociated by 0.05% trypsin. Single-cell suspensions were obtained by passing the cells through 22-gauge needle and through a 40 μm cell strainer, collected by centrifugation, and resuspended in Stemline II media. Live cells were counted by trypan blue exclusion, and 1 to 2×10^5/ml were mixed with blast colony growth medium (BGM) as previously described, and plated in Ultra-Low dishes. Blast colonies were observed 3-4 days after plating, followed by rapid expansion.
Cells from blast cultures or megakaryocyte cultures are monitored routinely by flow cytometry analyses on FACS Caliber. Fluorochrome conjugated antibodies for lineage markers, CD41a, CD42a, CD42b and CD235a (BD Biosciences) were used to characterize the megakaryocyte and erythroid lineages. Antibodies were freshly prepared (1:100 dilution for CD42a and CD42b antibodies; 1:250 dilution for CD41a antibody; 1:2000 for CD235a antibody) in PBS with 5% new born calf serum. Typically 1 to 2×10^5 cells were used for antibody labeling. Cells were stained in 100 μl antibody cocktail for 1 hour on ice, then washed twice with buffer, and resuspended in 250 μl buffer supplemented with 1 μg/ml propidium iodide. To detect the expression level of HLA-ABC, platelets were incubated with a fluorescein isothiocyanate (FITC)-conjugated antihuman HLA-ABC antibody or FITC-conjugated mouse immunoglobulin G (IgG) as a control. The samples were then analyzed using a flow cytometer (FACSCalibur, Becton Dickinson), and data were analyzed using Cellquest or Flowjo software. Cell sorting was performed on BD FACS Aria system at UMASS Medical School Core Facility. […]

[3] = tested on: CD41a+ megakaryocytes from hESC derived BCs; assay: Megakaryocyte (MK) differentiation/expansion culture from hESC derived blast cells, CD41a+ cell count; settings: for yields / expansion of CD41a+ megakaryocytes: serum-free Stemline II MK culture of day 6 to 8 BCs, factors compared to TPO and SCF only, 4 day liquid culture
Experimental: BCs from day 6 to 8 blast cultures were purified and plated (1 to 5×10^5/ml) in Stemline II media supplemented with 50 ng/ml TPO, 20 ng/ml SCF and other cytokines to induce BC differentiation toward MKs. Half of the MK culture media was replaced with fresh media every 2 or 3 days.
In order to further direct the differentiation of megakaryocytes, day 6 to day 8 BCs from methylcellulose semi-solid cultures were harvested and then resuspended in serum-free media, i.e., Stemline II supplemented with cytokines for MK culture. The cell count of CD41a+ cells was used as readout to determine the expansion megakaryocytes during the suspension culture, which was calculated by multiplying the percentage of CD41a+(FACS) and total live cell count (Trypan blue exclusion). […] A panel of cytokines and factors were also tested in order to achieve high purity and the total yield of megakaryocytes from BCs. These factors including IL9 and BMP4 were previously reported as megakaryocyte promoting factors in other systems^21:22.
Certain factors, however, did slightly increase the percentage of CD41+ cells (not shown).

hESC-PLTs = assay: CD41a/CD42b expression on hESC-PLTs generated under feeder-free conditions (FACS); settings: GM6001 100 μM during late stage of differentiation
Experimental: To examine whether functional platelets were generated under feeder-free conditions, the inventors examined CD41a/CD42b expression on hESC-derived platelets (hESC-PLTs) by FACS analyses. […] However, less than 5% of these hESC-PLTs were CD42b positive. […] Supplement of GM6001 (100 μM) during late stage of human ESC-PLTs differentiation increased CD41a and CD42b double positive hESC-PLTs to about 15%. The function of feeder-free generated hESC-PLTs was assessed by integrin dependent spreading assay on immobilized fibrinogen and vWF. Anti-human CD41a antibody and DAPI staining were used to identify platelets.
Hemangioblast/BC generation from hESC lines (HuES-3, H7 [WA07], MA01, and MA09) was performed as previously reported^17:20. BCs from day 6 to 8 cultures were purified and plated (1 to 5×10^5/ml) in Stemline II media supplemented with 50 ng/ml TPO, 20 ng/ml SCF and 20 ng/ml IL-11 (Peprotech) to induce BC differentiation toward MKs. Half of the MK culture media was replaced with fresh media every 2 or 3 days. […]
Cells from blast cultures or MK cultures are monitored routinely by flow cytometry analyses on FACSCalibur (Becton Dickinson) or Accuri C6 Cytometer (Accuri Cytometers). […] The samples were then analyzed with FACSCalibur, and data analyzed using Cellquest or Flowjo software. […] Cellular DNA content was analyzed on an Accuri C6 cytometer.

Molecule	yields / expansion of CD41a+ megakaryocytes [3]	further results
Nc1ncnc2c1ncn2[C@@H]1O[C@H](COP(=O)(O)OP(=O)(O)O)[C@@H](O)[C@H]1O [ADP]	–	lamellipodia and actin stress fiber formation [1]: enhanced
SCF: cytokine in MK culture media	significantly increased	percentage of CD41a+ cells at the end of blast culture [2]: increased
VEGF	slightly increased	–
thrombin	–	lamellipodia and actin stress fiber formation [1]: enhanced
IL9: previously reported megakaryocyte promoting factor	did not show obvious effects	–
bFGF: growth factor tested in MK culture	slightly increased	–
IL 6: cytokine tested in MK culture	slightly increased	–
TPO: cytokine in MK culture media	not sufficient	percentage of CD41a+ cells at the end of blast culture [2]: increased
C[C@@H](N)[C@H]1CC[C@H](C(=O)Nc2ccncc2)CC1 [Y27632]	–	CD41+ cell count at the end of 4 day culture ([3]; 10 μM during 4 day MK culture): reduced; percentage of polyploid cells ([3]; 10 μM during 4 day MK culture): dramatically increased
CNC(=O)[C@H](Cc1c[nH]c2ccccc12)NC(=O)[C@@H](CC(=O)NO)CC(C)C [GM6001]	–	CD41a and CD42b double positive hESC-PLTs (hESC-PLTs): about 15%
IL11: cytokine reported to enhance expansion and maturation of megakaryocytes (protein, UniProt P20809 22-199, looked up) Interleukin-11: PGPPPGPPRVSPDPRAELDSTVLLTRSLLADTRQLAAQLRDKFPADGDHNLDSLPTLAMSAGALGALQLPGVLTRLRADLLSYLRHVQWLRRAGGSSLKTLEPELGTLQARLDRLLRRLQLLMSRLALPQPPPDPPAPPLAPPSSAWGGIRAAHAILGGLHLTLDWAVRGLLLLKTRL	slightly increased	ratio of CD41a+ cells in day 6 to 8 blast cultures ([2]; IL-11 20 ng/ml in BGM medium): further increased
BMP4: previously reported megakaryocyte promoting factor (protein, UniProt P12644 293-408, looked up) Bone morphogenetic protein 4: SPKHHSQRARKKNKNCRRHSLYVDFSDVGWNDWIVAPPGYQAFYCHGDCPFPLADHLNSTNHAIVQTLVNSVNSSIPKACCVPTELSAISMLYLDEYDKVVLKNYQEMVVEGCGCR	did not show obvious effects	–
